Biological target: T1, human mPGES-1 (Homo sapiens, UniProt O14684)
T1 sequence (O14684 1-152): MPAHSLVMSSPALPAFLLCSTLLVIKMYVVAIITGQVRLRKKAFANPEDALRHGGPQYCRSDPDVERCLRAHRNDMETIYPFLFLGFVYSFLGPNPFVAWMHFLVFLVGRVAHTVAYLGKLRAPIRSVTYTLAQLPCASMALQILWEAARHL
Experiment: Microsomal prostaglandin E synthase biochemical assay
Conditions: microsome preparation containing human mPGES-1; PGH2 10.8 μM, GSH 2.5 mM, pH 6.8; PGE2 by HTRF; average of at least n=2
Method in brief: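 Human mPGES-1 microsomes at 2 μg/mL were pre-incubated 15 min with compound (60 μM to 0.002 μM) in 50 mM potassium phosphate pH 6.8 with 2.5 mM GSH. The reaction was started with 10.8 μM PGH2 and stopped after 1 minute with acidic ferric chloride/citrate. PGE2 was quantified by HTRF; IC50 is the mean of at least 2 runs.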

Structure (SMILES) | IC50 [nM]
NS(=O)(=O)c1ccc(Cl)cc1NS(=O)(=O)CCc1ccc(Cl)c(Cl)c1 [Example 231, 4-Chloro-2-(2-(3,4-dichlorophenyl)ethylsulfonamido)benzenesulfonamid] | 130
NS(=O)(=O)c1ccccc1NS(=O)(=O)c1cccc(Cl)c1Cl [Example 149, 2,3-Dichloro-N-(2-sulfamoylphenyl)benzenesulfonamide] | 650
NS(=O)(=O)c1ccc(F)cc1NS(=O)(=O)/C=C/c1ccc(-c2ccccc2)cc1 [Example 53, 4-Fluoro-2-[[(E)-2-(4-phenylphenyl)ethenyl]sulfonylamino]benzenesulfonamide] | 160
NS(=O)(=O)c1cc(CO)ccc1NS(=O)(=O)CCc1ccc(Cl)cc1 [Example 44, 2-[2-(4-Chlorophenyl)ethylsulfonylamino]-5-(hydroxymethyl)benzenesulfonamide] | 750
NS(=O)(=O)c1ccc(F)cc1NS(=O)(=O)CCc1ccc2ccccc2c1 [Example 111, 4-Fluoro-2-(2-naphthalen-2-ylethylsulfonylamino)benzenesulfonamide] | 760
Cc1ccc(NS(=O)(=O)/C=C/c2ccc(Br)cc2)c(S(N)(=O)=O)c1 [Example 98, 2-[[(E)-2-(4-Bromophenyl)ethenyl]sulfonylamino]-5-methyl-benzenesulfonamide] | 680
CC(C)(C)c1ccc(CCS(=O)(=O)Nc2cc(F)ccc2S(N)(=O)=O)cc1 [Example 71, 4-Fluoro-2-[2-(4-tert-butylphenyl)ethylsulfonylamino]benzenesulfonamide] | 300
NS(=O)(=O)c1ccccc1NS(=O)(=O)c1ccc(-c2cc3ccccc3o2)cc1 [Example 142, 4-Benzofuran-2-yl-N-(2-sulfamoylphenyl)benzenesulfonamide] | 4900
NS(=O)(=O)c1c(F)cccc1NS(=O)(=O)/C=C/c1ccc(Cl)cc1 [Example 80, 2-[[(E)-2-(4-Chlorophenyl)ethenyl]sulfonylamino]-6-fluoro-benzenesulfonamide] | 570
COc1ccccc1/C=C/S(=O)(=O)Nc1ccc(F)cc1S(N)(=O)=O [Example 55, 5-Fluoro-2-[[(E)-2-(2-methoxyphenyl)ethenyl]sulfonylamino]benzenesulfonamide] | 360
NS(=O)(=O)c1ccccc1NS(=O)(=O)c1ccc(OCc2cnc(Cl)s2)cc1 [Example 163, 2-[[4-[(2-Chlorol,3-thiazol-5-yl)methoxy]phenyl]sulfonylamino]benzenesulfonamide] | 460
NS(=O)(=O)c1ccccc1NS(=O)(=O)CCc1ccc(-c2ccc(C(F)(F)F)cc2)cc1 [Example 224, 2-(2-(4′-(trifluoromethyl)biphenyl-4-yl)ethylsulfonamido)benzenesulfonamide] | 100
N#Cc1ccc(/C=C/S(=O)(=O)Nc2ccccc2S(N)(=O)=O)cc1 [Example 33, 2-[[(E)-2-(4-Cyanophenyl)ethenyl]sulfonylamino]benzenesulfonamide] | 1100
NS(=O)(=O)c1ccccc1NS(=O)(=O)CCc1ccc(-c2ccco2)cc1 [Example 16, 2-[2-[4-(2-Furyl)phenyl]ethylsulfonylamino]benzenesulfonamide] | 190
NS(=O)(=O)c1ccccc1NS(=O)(=O)c1cccc(-c2cc3ccccc3o2)c1 [Example 136, 3-Benzofuran-2-yl-N-(2-sulfamoylphenyl)benzenesulfonamide] | 3800
Cc1ccc(NS(=O)(=O)c2cccc(Cl)c2Cl)c(S(N)(=O)=O)c1 [Example 154, 2-(2,3-Dichloro-benzenesulfonylamino)-5-methyl-benzenesulfonamide] | 9300
CC(CS(=O)(=O)Nc1ccccc1S(N)(=O)=O)c1ccccc1 (stereo not drawn) [Example 79, 2-(2-Phenylpropylsulfonylamino)benzenesulfonamide] | 9900
NS(=O)(=O)c1cccc(F)c1NS(=O)(=O)/C=C/c1ccc(-c2ccccc2)cc1 [Example 59, 3-Fluoro-2-[[(E)-2-(4-phenylphenyl)ethenyl]sulfonylamino]benzenesulfonamide] | 2300
C/C(=C\c1ccc(Cl)cc1)S(=O)(=O)Nc1cc(F)ccc1S(N)(=O)=O [Example 11, 2-[[(E)-1-(4-chlorophenyl)prop-1-en-2-yl]sulfonylamino]-4-fluoro-benzenesulfonamide] | 590
COc1ncc(-c2cccc(S(=O)(=O)Nc3ccccc3S(N)(=O)=O)c2)c(OC)n1 [Example 118, 3-(2,4-Dimethoxypyrimidin-5-yl)-N-(2-sulfamoylphenyl)benzenesulfonamide] | 4700
CC(Cc1ccc(Cl)cc1)S(=O)(=O)Nc1cc(F)ccc1S(N)(=O)=O (stereo not drawn) [Example 10, 2-[1-(4-Chlorophenyl)propan-2-ylsulfonylamino]-4-fluoro-benzenesulfonamide] | 450

Structure (SMILES) | IC50 [nM]
NS(=O)(=O)c1cc(F)ccc1NS(=O)(=O)CCc1ccc(Cl)cc1 [Example 21, 2-[2-(4-Chlorophenyl)ethylsulfonylamino]-5-fluoro-benzenesulfonamide] | 320
CC(CS(=O)(=O)Nc1ccccc1S(N)(=O)=O)c1ccc(Cl)cc1 (stereo not drawn) [Example 108, 2-[2-(4-Chlorophenyl)propylsulfonylamino]benzenesulfonamide] | 4900
N#Cc1ccc(NS(=O)(=O)CCc2ccc(Cl)c(Cl)c2)c(S(N)(=O)=O)c1 [Example 199, 5-Cyano-2-(2-(3,4-dichlorophenyl)ethylsulfonamido)benzenesulfonamide] | 2500
NS(=O)(=O)c1ccccc1NS(=O)(=O)/C=C/c1ccc(C2=CCCC2)cc1 [Example 207, (E)-2-(2-(4-Cyclopentenylphenyl)vinylsulfonamido)benzenesulfonamide] | 97
NS(=O)(=O)c1ccccc1NS(=O)(=O)c1cc(Cl)c(Cl)s1 [Example 160, 4,5-Dichloro-N-(2-sulfamoylphenyl)thiophene-2-sulfonamide] | 1200
Cc1ccc(NS(=O)(=O)CCc2ccc(C#CC(C)(C)C)cc2)c(S(N)(=O)=O)c1 [Example 210, 2-{2-[4-(3,3-Dimethyl-but-1-ynyl)-phenyl]-ethanesulfonylamino}-5-methyl-benzenesulfonamide] | 360
CC(C)(C)C#Cc1ccc(/C=C/S(=O)(=O)Nc2ccccc2S(N)(=O)=O)cc1 [Example 208, (E)-2-(2-(4-(3,3-Dimethylbut-1-ynyl)phenyl)vinylsulfonamido)benzenesulfonamide] | 55
COc1ccccc1/C=C/S(=O)(=O)Nc1ccccc1S(N)(=O)=O [Example 83, 2-[[(E)-2-(2-Methoxyphenyl)ethenyl]sulfonylamino]benzenesulfonamide] | 430
NS(=O)(=O)c1c(F)cccc1NS(=O)(=O)/C=C/c1ccccc1C(F)(F)F [Example 89, 2-Fluoro-6-[[(E)-2-[2-(trifluoromethyl)phenyl]ethenyl]sulfonylamino]-benzenesulfonamide] | 2800
C/C(=C\c1ccc(Cl)cc1)S(=O)(=O)Nc1ccccc1S(N)(=O)=O [Example 9, 2-[[(E)-1-(4-Chlorophenyl)prop-1-en-2-yl]sulfonylamino]benzenesulfonamide] | 610
NS(=O)(=O)c1ccc(F)cc1NS(=O)(=O)/C=C/c1ccc2ccccc2c1 [Example 92, 4-Fluoro-2-[[(E)-2-naphthalen-2-ylethenyl]sulfonylamino]benzenesulfonamide] | 91
COc1ccccc1/C=C/S(=O)(=O)Nc1cccc(F)c1S(N)(=O)=O [Example 57, 2-Fluoro-6-[[(E)-2-(2-methoxyphenyl)ethenyl]sulfonylamino]benzenesulfonamide] | 620
NS(=O)(=O)c1ccc(F)cc1NS(=O)(=O)/C=C/c1ccc(Cl)cc1 [Example 78, 2-[[(E)-2-(4-Chlorophenyl)ethenyl]sulfonylamino]-4-fluoro-benzenesulfonamide] | 350
CC(Cc1ccccc1)S(=O)(=O)Nc1ccccc1S(N)(=O)=O (stereo not drawn) [Example 8, 2-(1-Phenylpropan-2-ylsulfonylamino)benzenesulfonamide] | 2200
NS(=O)(=O)c1ccccc1NS(=O)(=O)c1cccc(-c2cccc(CO)c2)c1 [Example 171, 2-[[3-[3-(Hydroxymethyl)phenyl]phenyl]sulfonylamino]benzenesulfonamide] | 1700
NS(=O)(=O)c1cc(Cl)c(F)cc1NS(=O)(=O)CCc1ccc(Cl)cc1 [Example 232, 5-Chloro-2-(2-(4-chlorophenyl)ethylsulfonamido)-4-fluorobenzenesulfonamide] | 870
CC(C)(C)C#Cc1cccc(S(=O)(=O)Nc2ccccc2S(N)(=O)=O)c1 [Example 185, 3-(3,3-Dimethylbut-1-ynyl)-N-(2-sulfamoylphenyl)benzenesulfonamide] | 2500
NS(=O)(=O)c1ccccc1NS(=O)(=O)/C=C/c1ccccc1O [Example 225, 2-[2-(2-Hydroxy-phenyl)-ethenesulfonylamino]-benzenesulfonamide] | 6300
COc1cc(Cl)ccc1CCS(=O)(=O)Nc1cc(Cl)ccc1S(N)(=O)=O [Example 228, 4-Chloro-2-(2-(4-chloro-2-methoxyphenyl)ethylsulfonamido)benzenesulfonamide] | 130
NS(=O)(=O)c1cc(Oc2ccccc2)ccc1NS(=O)(=O)c1cccc(-c2ccc(Cl)c(Cl)c2)c1 [Example 155, 2-[[3-(3,4-Dichlorophenyl)phenyl]sulfonylamino]-5-phenoxy-benzenesulfonamide] | 9800
COc1cc(Cl)ccc1CCS(=O)(=O)Nc1ccc(C#N)cc1S(N)(=O)=O [Example 182, 2-(2-(4-Chloro-2-methoxyphenyl)ethylsulfonamido)-5-cyanobenzenesulfonamide] | 520

Reference: patent publication US20090163586A1, “Bis-(Sulfonylamino) Derivatives in Therapy 205” (AstraZeneca AB, priority 2007, published 2009)
